Data published in patent US7468392B1, “Anti-fatigue cyclohexenone compounds from antrodia camphorata” (Golden Biotechnology Corporation, priority 2007, dated 2008).

Legend:
Type in all cases: in vivo, human
[1] = system: healthy male volunteers; assay: Lactate levels in blood before/after exhaustive exercise at 80% VO2max; settings: for blood lactate levels: plasma, Mean, n = 15; for effect of supplementation after exercise on metabolism of blood lactate: exhaustive exercise at 80% VO2max, versus placebo
Procedure: (§1) The present invention is based on supplementing cyclohexenone of Antrodia camphorata or placebo with no cyclohexenone of Antrodia camphorata to the subjects. The subjects were tested for the anti-fatigue function after supplementing cyclohexenone of Antrodia camphorata by measuring the amounts of fatigue indexes such as CPK, lactic acid, glucose, ammonia and free fatty acid before and after exhaustive exercise load at 80% VO2max.
(§2) Subjects were randomized to receive either cyclohexenone of Antrodia camphorata or placebo. Placebo contained substances such as cornstarch but no cyclohexenone of Antrodia camphorata. A double-blind, cross-over method was performed in this study where neither the evaluator nor the subject knew the content of the test substances. Based on rules of order balance, each subject have to receive the following tests: relaxing and receiving placebo (PR), exercising and receiving placebo (PE), relaxing and receiving cyclohexenone of Antrodia camphorata (DR), and exercising and receiving cyclohexenone of Antrodia camphorata (DE). Each test was carried out for one week, and took one week off before the next test until all 4 tests were performed in each subject. The exercise was performed on a treadmill with the load intensity at the measured 80% VO2max (7.61±1.87) until exhausted. Subjects received cyclohexenone of Antrodia camphorata or placebo after exercise in the amount of 0.2 g/kg body weight per day. […] Blood was collected in anticoagulant (such as EDTA) containing collection tubes, and was centrifuged at 3000 g. for 10 min to collect the plasma. The fatigue indexes such as CPK, lactic acid, glucose, ammonia and free fatty acid were analyzed accordingly. The physiological and biochemical changes before and after exercise with different supplements were compared and shown as values of mean and standard error (Mean±SEM). […] The details for the biochemical analysis and results are described below:
The measurement of blood lactate was performed with an automated blood analyzer using dry chemistry method (Johnson & Johnson DT-60II) based on enzyme function and spectrophotometric theory. Lactate oxidase was added into a defined amount of plasma for reaction, followed by addition of 4-aminoantipyrine and 1,7-dihydroxynaphthalene. A red product was formed through activities of peroxidase. The reactions are shown below:
The absorbance at 540 nm was measured to obtain the concentration of blood lactate.

[2] = system: healthy male volunteers; assay: Free fatty acid levels before/after exhaustive exercise at 80% VO2max; settings: for levels of free fatty acid: plasma, Mean, n = 15; for effect of supplementation after exercise on metabolism of free fatty acid: exhaustive exercise at 80% VO2max, versus placebo
Procedure: as §1, §2
The measurement of free fatty acid level was performed based on enzyme function and spectrophotometric theory. Acyl CoA synthetase and acyl CoA oxidase were added into a defined amount of plasma for reaction. A purple product was formed through activities of peroxidase. The reactions are shown below:
The absorbance at 550 nm was measured to obtain the concentration of free fatty acid.

[3] = system: healthy male volunteers; assay: Creatine phosphate kinase (CPK) activity in plasma before/after exhaustive exercise at 80% VO2max; settings: plasma, Mean, n = 15
Procedure: as §1, §2
The measurement of creatine phosphate kinase was performed with an automated blood analyzer Johnson & Johnson DT-60II based on enzyme function and spectrophotometric theory. Creatine phosphate […] was added into a defined amount of plasma to react, followed by addition of 4-aminoantipyrine and 1,7-dihydroxynaphthalene. A […] product was formed through peroxidase function. The absorbance at 680 nm was measured to obtain the concentration of creatine kinase.

[4] = Relax (DR), Post-exercise 0.5 h
[5] = Relax (DR), Post-exercise 120 h
[6] = Relax (DR), Post-exercise 168 h
[7] = exercise (DE), Post-exercise 0 h
[8] = exercise (DE), Post-exercise 0.5 h
[9] = exercise (DE), Post-exercise 1 h
[10] = exercise (DE), Post-exercise 2 h
[11] = exercise (DE), Post-exercise 24 h
[12] = exercise (DE), Post-exercise 48 h
[13] = exercise (DE), Post-exercise 72 h
[14] = exercise (DE), Post-exercise 120 h
[15] = exercise (DE), Post-exercise 168 h
[16] = exercise (DE), Prior to exercise
[17] = listed as cyclohexenone from Antrodia camphorata
[18] = listed as cyclohexenone of Antrodia camphorata

COC1=C(OC)C(O)C(C/C=C(\C)CC/C=C(\C)CCC=C(C)C)C(C)C1=O (centres unmarked) [cyclohexenone, 4-hydroxy-2,3-dimethoxy-6-methyl-5(3,7,11-trimethyl-dodeca-2,6,10-trienyl)-cyclohex-2-enone]
blood lactate levels ([1]; Relax (DR), Post-exercise 0 h): 2.39 mmol/L | blood lactate levels [1, 4]: 2.25 mmol/L | blood lactate levels ([1]; Relax (DR), Post-exercise 1 h): 3.00 mmol/L | blood lactate levels ([1]; Relax (DR), Post-exercise 2 h): 2.52 mmol/L | blood lactate levels ([1]; Relax (DR), Post-exercise 24 h): 2.26 mmol/L | blood lactate levels ([1]; Relax (DR), Post-exercise 48 h): 2.71 mmol/L | blood lactate levels ([1]; Relax (DR), Post-exercise 72 h): 2.22 mmol/L | blood lactate levels [1, 5]: 2.41 mmol/L | blood lactate levels [1, 6]: 2.41 mmol/L | blood lactate levels ([1]; Relax (DR), Prior to exercise): 2.54 mmol/L | blood lactate levels [1, 7]: 7.07 mmol/L | blood lactate levels [1, 8]: 3.20 mmol/L | blood lactate levels [1, 9]: 2.96 mmol/L | blood lactate levels [1, 10]: 2.9 mmol/L | blood lactate levels [1, 11]: 2.39 mmol/L | blood lactate levels [1, 12]: 2.77 mmol/L | blood lactate levels [1, 13]: 2.18 mmol/L | blood lactate levels [1, 14]: 2.53 mmol/L | blood lactate levels [1, 15]: 2.23 mmol/L | blood lactate levels [1, 16]: 2.50 mmol/L | effect of supplementation after exercise on metabolism of blood lactate [1, 17]: did not affect the metabolism of blood lactate | effect of supplementation after exercise on metabolism of blood lactate [1, 18]: no significant difference | levels of free fatty acid ([2]; Relax (DR), Post-exercise 0 h): 0.33 mM | levels of free fatty acid [2, 4]: 0.34 mM | levels of free fatty acid ([2]; Relax (DR), Post-exercise 1 h): 0.3 mM | levels of free fatty acid ([2]; Relax (DR), Post-exercise 2 h): 0.23 mM | levels of free fatty acid ([2]; Relax (DR), Post-exercise 24 h): 0.28 mM | levels of free fatty acid ([2]; Relax (DR), Post-exercise 48 h): 0.29 mM | levels of free fatty acid ([2]; Relax (DR), Post-exercise 72 h): 0.31 mM | levels of free fatty acid [2, 5]: 0.48 mM | levels of free fatty acid [2, 6]: 0.28 mM | levels of free fatty acid ([2]; Relax (DR), Prior to exercise): 0.38 mM | levels of free fatty acid [2, 7]: 0.91 mM | levels of free fatty acid [2, 8]: 0.6 mM | levels of free fatty acid [2, 9]: 0.61 mM | levels of free fatty acid [2, 10]: 0.59 mM | levels of free fatty acid [2, 11]: 0.41 mM | levels of free fatty acid [2, 12]: 0.28 mM | levels of free fatty acid [2, 13]: 0.44 mM | levels of free fatty acid [2, 14]: 0.3 mM | levels of free fatty acid [2, 15]: 0.32 mM | levels of free fatty acid [2, 16]: 0.34 mM | effect of supplementation after exercise on metabolism of free fatty acid [2, 17]: did not affect the metabolism of free fatty acid | effect of supplementation after exercise on metabolism of free fatty acid [2, 18]: no significant difference | creatine phosphate kinase levels ([3]; Relax (DR), Post-exercise 0 h): 150.20 U/L | creatine phosphate kinase levels [3, 4]: 166.53 U/L | creatine phosphate kinase levels ([3]; Relax (DR), Post-exercise 1 h): 167.40 U/L | creatine phosphate kinase levels ([3]; Relax (DR), Post-exercise 2 h): 146.33 U/L | creatine phosphate kinase levels ([3]; Relax (DR), Post-exercise 24 h): 158.47 U/L | creatine phosphate kinase levels ([3]; Relax (DR), Post-exercise 48 h): 133.87 U/L | creatine phosphate kinase levels ([3]; Relax (DR), Post-exercise 72 h): 165.73 U/L | creatine phosphate kinase levels [3, 5]: 243.00 U/L | creatine phosphate kinase levels [3, 6]: 183.27 U/L | creatine phosphate kinase levels ([3]; Relax (DR), Prior to exercise): 167.27 U/L | creatine phosphate kinase levels [3, 7]: 259.57 U/L | creatine phosphate kinase levels [3, 8]: 221.86 U/L
